Laboratory results as given in patent publication US20250255930A1, “METHODS OF TREATMENT OF TINNITUS USING DERIVATIVES OF OXYTOCIN” (MASKBEGONE LLC, priority 2024, published 2025).

Assay: clinical use of intranasal oxytocin formulations to treat tinnitus (patient case reports)
Type: in vivo, human
Description: According to an embodiment, this disclosure provides a method for treating tinnitus. The method comprises administering intranasally to an individual a composition comprising or consisting essentially of oxytocin, wherein such administration results in treatment of tinnitus. The effectiveness of treatment of tinnitus may be monitored by quantifying tinnitus, such as by self-evaluation using clinically accepted techniques. An example is the Tinnitus Handicap Inventory (“THI”), a validated and published measurement technique. (Newman et al., Arch Otolaryngol Head Neck Surg, 1996 February 122 (2), 143-8). In an embodiment, the improvement in an individual using THI may comprise an improvement of at least 10%. In various embodiments, the improvement may comprise from 10-100%, such as at least 20, 30, 40, 50, 60, 70, 80, 90, 95, or 99%.
This example describes clinical use of the present formulations to treat tinnitus. […] A compounded formulation of oxytocin that provided a dose of 60 IU daily (30 IU twice daily) was then used. The formulation contained oxytocin, magnesium chloride, citric acid, and sodium citrate in sterile water. […] The dose was then increased to 45 IU (3 sprays of 15 IU) 4 times daily. […] A thickener was then added to the formulation keeping the oxytocin amount the same. […] Their score on the Tinnitus Handicap Inventory reduced from a pretreatment score of 96 (meaning a catastrophic level) to a current score of 14 (meaning mild or no tinnitus). The patient has remained improved over 1 year since initiating therapy. Their current dose is 22.5 IU in each nostril 4 times daily. Since their tinnitus occurs in distinct cycles, at times when tinnitus severity is loudest, they increase the dose to 5 times daily for 2 days. […] Their current handicap inventory is 8.

[1] = first patient, 22.5 IU in each nostril 4 times daily, 5 times daily for 2 days when loudest, past 3 months
[2] = patient with constant tinnitus, 30 IU 4 times daily, after 2 weeks
[3] = second patient, 45 IU twice daily

With CC[C@H](C)[C@@H]1NC(=O)[C@H](Cc2ccc(O)cc2)NC(=O)[C@@H](N)CSSC[C@@H](C(=O)N2CCC[C@H]2C(=O)N[C@@H](CC(C)C)C(=O)NCC(N)=O)NC(=O)[C@H](CC(N)=O)NC(=O)[C@H](CCC(N)=O)NC1=O [oxytocin, Cys-Tyr-Ile-Gln-Asn-Cys-Pro-Leu-Gly] the “time patient has remained improved since initiating therapy” value (first patient) was “over 1 year”, the current handicap inventory (first patient, 22.5 IU in each nostril 4 times daily, 5 times daily for 2 days when loudest) was 8 and the time without tinnitus [1] was no more than 10 days. For the same compound, the tinnitus severity [1] was “reduced tinnitus severity”, the relief of tinnitus (first patient, 45 IU (3 sprays of 15 IU) 4 times daily) was “significant relief” and the patient-reported benefit (first patient, 60 IU daily (30 IU twice daily), oxytocin, magnesium chloride, citric acid, sodium citrate in sterile water) was “partial benefit”. The “score on the Tinnitus Handicap Inventory” value (first patient, after treatment with thickener formulation, pretreatment score 96) was 14, the relief of tinnitus (first patient, initial dose of less than 20 IU daily) was “did not provide any relief” and the tinnitus free period (first patient, thickener added to formulation, oxytocin amount the same (45 IU 4 times daily)) was “several days of tinnitus free period”. The relief of tinnitus (lower amounts of oxytocin (such as under 20 IU per day)) was “did not result in any significant relief”, the improvement (patient with constant tinnitus after neck injury, 45 IU (22.5 IU in each nostril) 4 times daily for 30 days) was “about 15%” and the tinnitus volume (patient with constant tinnitus after neck injury, dose raised to 5 times daily on occasions) was “diminished tinnitus volume”. The “time without noticing the tinnitus” value [2] was “several hours per day without noticing the tinnitus”, the tinnitus intensity [2] was “tinnitus intensity has lowered” and the benefit (patient with drug-caused tinnitus, 30 IU twice daily) was “without benefit”. For the same compound, the “decrease in tinnitus volume” value (patient with drug-caused tinnitus, 45 IU 4 times daily) was “approximately 30%”, the benefit [3] was “significant benefit” and the “reduction of tinnitus volume” value [3] was 45-60%. The “time patient remains improved” value [3] was “more than a year” and the tinnitus free days [3] was “some days in which they are tinnitus free”.
